Results taken from patent US9359347B2, “Inhibitors of Akt/PKB with anti-tumor activity” (University of South Florida, priority 2007, dated 2016).
Blank lines part the entries; values can stand above or below the compound they belong to.

Tests used:
[1] = target: T1, constitutively active Myc-AKT1-E17K (Homo sapiens, UniProt P31749, E17K); assay: In vitro kinase assay of anti-Myc immunoprecipitates from Myc-AKT1-E17K transfected HEK293 cells; conditions: HEK293, Histone H2B substrate
wild-type Myc-AKT1 [2] = target: T2, wild-type Myc-AKT1 (Homo sapiens, UniProt P31749); conditions: wild-type Myc-AKT1 transfected HEK 293 cells
mTORC2 = mTORC2 (Homo sapiens, UniProt P42345); assay: Interference with mTORC2 complex (FIG. 3D)
wild-type Myc-AKT1 [3] = target: T2, wild-type Myc-AKT1; assay: In vitro kinase assay of anti-Myc immunoprecipitates from wild-type Myc-AKT1 transfected HEK293 cells; conditions: wild-type Myc-AKT1, HEK293, 30 min then EGF 15 min, Histone H2B substrate
[4] = target: T1, constitutively active Myc-AKT1-E17K; conditions: Myc-AKT1-E17K transfected HEK 293 cells
mTORC1 = mTORC1 (Homo sapiens, UniProt P42345); assay: Interference with mTORC1 complex (FIG. 3D)
Akt downstream targets = assay: Phosphorylation of Akt downstream targets (FIG. 3C); assay type: cell-based
Akt [5] = target: T3, Akt (Homo sapiens, UniProt P31749); assay: IGF-1 induced plasma membrane translocation of Akt in Myc-AKT1 transfected HeLa cells; assay type: cell-based; conditions: Myc-AKT1, 30 min prior to IGF1 for 15 minutes
T3 construct: expressed in transfected cells; host or cells: HeLa
Experimental: HeLa cells were transfected on coverslips with Myc-AKT1, serum-starved overnight and then treated with (FIG. 6C) or without (FIG. 6B) AKT-SI1 for 30 min prior to stimulation with IGF1 for 15 minutes. Following fixation, cells were immuno-stained with the anti-Myc monoclonal antibody, followed by a FITC-conjugated secondary antibody to reveal the presence of the epitope-tagged protein in the cytosol or membrane (FIG. 6B). Cells without treatment with AKT-SI1 and IGF1 were used as control (FIG. 6A).

Akt [6] = assay: Immunoblotting of Akt phosphorylation in treated tumor specimens; assay type: in vivo, nude mice; conditions: 10 mg/kg/day
MDA-MB-468 [7] = assay: Apoptosis analysis (annexin V and PI, FACScan), MDA-MB-468; assay type: cell-based, human; conditions: MDA-MB-468, annexin V and PI
Experimental: (§1) The blots were reprobed with anti-actin antibody (bottom panel). FIGS. 4B and 4C are cell proliferation assays in which indicated cell lines were treated with different doses of API-1 for 24 hours and then analyzed with MTT assay. FIGS. 4D-4G show an apoptosis analysis in which cells were treated with API-1 and stained with annexin V and PI and analyzed by FACScan.
(§2) In vitro kinase was performed as previously described (Jiang et al. 2000). Cell survival was assayed with MTT (Sigma). Apoptosis was detected with annexin V (BD Biosciences), which was performed according to manufacture's instruction. Recombinant Akt and PDK1 were purchased from Upstate Biotechnology Inc.
(§3) Akt is a major pro-growth and pro-survival pathway.

OVACAR3 = assay: Apoptosis analysis (annexin V and PI, FACScan), OVACAR3; assay type: cell-based, human
Experimental: as §1, §2, §3

MDA-MB-435s cells = assay: Cell proliferation MTT assay, MDA-MB-435s; assay type: cell-based, human; conditions: 24 hours
Experimental: as §1, §2, §3

OVCAR3 tumors = assay: Nude mouse tumor xenograft model, OVCAR3; assay type: in vivo, nude mice; conditions: 10 mg/kg/day i.p.
MCF7 = assay: Cell proliferation MTT assay, MCF7; assay type: cell-based, human; conditions: MCF7, 24 hours
Experimental: as §1, §2, §3

OVCAR3 = assay: Cell proliferation MTT assay, OVCAR3; assay type: cell-based, human; conditions: OVCAR3, 24 hours
Experimental: as §1, §2, §3

OVCA8 = assay: Cell proliferation MTT assay, OVCA8; assay type: cell-based, human; conditions: OVCA8, 24 hours
Experimental: as §1, §2, §3

[8] = Tolerability observations in xenograft mice; assay type: in vivo; conditions: 10 mg/kg/day, data not shown
Experimental: Tumor cells were harvested, resuspended in PBS, and injected subcutaneous (s.c.) into the right and left flanks (2×10^6 cells/flank) of 8-week-old female nude mice as reported previously (Sun et al. 1999). When tumors reached about 100-150 mm^3, animals were randomized and dosed intraperitoneal (i.p.) with vehicle or drug daily. Control animals received dimethylsulfoxide (DMSO) (20%) vehicle and treated animals were injected with API-1 (10 mg/kg/day) in 20% DMSO.
Because API-1 inhibits Akt signaling and induces apoptosis and cell growth arrest in cancer cells with elevated levels of Akt (FIGS. 4A-4G), it was reasoned that the growth of tumors with elevated levels of Akt should be more sensitive to API-1 than that of tumors with low levels of Akt in nude mice. To this end, Akt-overexpressing cells (OVCAR3 and PANC-1) were s.c. implanted into the left flank, and those cell lines that express low levels of Akt (OVCAR5 and COLO357) were s.c. implanted into the right flank of mice. When the tumors reached an average size of about 100-150 mm^3, the animals were randomized and treated i.p. with either vehicle or API-1 (10 mg/kg/day). As illustrated in FIGS. 5A-5J, OVCAR3 and PANC1 tumors treated with vehicle control continued to grow. API-1 inhibited OVCAR3 and PANC1 tumor growth by 70% and 50%, respectively (FIGS. 5C-5F and 5G-5J). In contrast, API-1 had little effect on the growth of OVCAR5 and COLO357 cells in nude mice (FIGS. 5A-5J). At dose 10 mg/kg/day, API-1 had no effects on blood glucose level, body weight, activity and food intake of mice (data not shown).

Akt [9] = assay: Immunoblotting with anti-phospho-Akt-S473 antibody in OVCAR3 cells; assay type: cell-based, human; conditions: 3 hours, read-out: IC50, phosphorylation level of Akt (phospho-Akt-S473)
OVCAR5 = assay: Cell proliferation MTT assay, OVCAR5; assay type: cell-based, human; conditions: OVCAR5, 24 hours
Experimental: as §1, §2, §3

PKA = assay: Immunoblotting of PKA phosphorylation in OVCAR3 cells; assay type: cell-based, human
PANC1 tumors = assay: Nude mouse tumor xenograft model, PANC1; assay type: in vivo, nude mice; conditions: 10 mg/kg/day i.p.
MDA-MB-468 [10] = assay: Cell proliferation MTT assay, MDA-MB-468; assay type: cell-based, human; conditions: MDA-MB-468, 24 hours
Experimental: as §1, §2, §3

T2 sequence (P31749 whole entry): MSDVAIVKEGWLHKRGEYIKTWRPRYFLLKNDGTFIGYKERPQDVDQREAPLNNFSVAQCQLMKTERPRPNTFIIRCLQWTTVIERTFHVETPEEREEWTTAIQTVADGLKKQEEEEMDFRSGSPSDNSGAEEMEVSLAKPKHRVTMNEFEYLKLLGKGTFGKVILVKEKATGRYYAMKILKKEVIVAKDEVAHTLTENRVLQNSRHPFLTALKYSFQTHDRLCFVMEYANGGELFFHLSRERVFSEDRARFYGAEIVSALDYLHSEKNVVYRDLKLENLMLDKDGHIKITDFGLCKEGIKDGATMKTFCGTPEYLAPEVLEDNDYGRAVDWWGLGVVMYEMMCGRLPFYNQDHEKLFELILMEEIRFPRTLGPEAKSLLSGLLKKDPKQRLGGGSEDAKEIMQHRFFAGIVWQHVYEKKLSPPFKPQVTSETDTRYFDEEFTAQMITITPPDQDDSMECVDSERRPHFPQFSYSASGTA
T1 sequence (P31749 whole entry E17K): as the sequence (P31749 whole entry) above, with E17K counted along it
T3 sequence (P31749 whole entry): as the sequence (P31749 whole entry) above

Compound: API-1
inhibition of Akt kinase activity, compared with API-2/TCN [1]: more potent than API-2/TCN | phospho-Akt levels (S473) (wild-type Myc-AKT1 [2]): inhibit | interference with mTORC2 complex (mTORC2): did not interfere | inhibition of Akt kinase activity, compared with API-2/TCN (wild-type Myc-AKT1 [3]): more potent than API-2/TCN | phospho-Akt levels (S473) [4]: inhibit | interference with mTORC1 complex (mTORC1): did not interfere | phosphorylation of Akt downstream targets (Akt downstream targets): inhibited | IGF-1 induced plasma membrane translocation of Akt (Akt [5]): inhibits

IC50 (Akt [9]): ~800 nM
Compound: NC(=O)c1cn(C2OC(CO)C(O)C2O)c2ncnc(N)c2c1=O (stereo not shown) [API-1]
reduction of phosphorylation levels of Akt in treated tumor samples (Akt [6]): about 70% | induction of apoptosis (MDA-MB-468 [7]): 4.6 fold | induction of apoptosis (OVACAR3): 9 fold | inhibition of cell proliferation (MDA-MB-435s cells): 10-30% | inhibition of tumor growth (OVCAR3 tumors): 70% | inhibition of cell proliferation (MCF7): 50-70% | inhibition of cell proliferation (OVCAR3): 50-70% | inhibition of cell proliferation (OVCA8): 50-70% | activity [8]: no effects | blood glucose level [8]: no effects | body weight [8]: no effects | food intake [8]: no effects | inhibition of cell proliferation (OVCAR5): 10-30% | phosphorylation levels of PKA (PKA): not inhibited | inhibition of tumor growth (PANC1 tumors): 50% | inhibition of cell proliferation (MDA-MB-468 [10]): 50-70%
